The values that follow come from patent publication US20020156115A1, “Insecticidal and acaricidal composition, and methods of using the same” (AGRO-KANESHO CO., LTD., priority 1999, published 2002).

In assay [1] the test system is eggs of two-spotted red spiders (Tetranychus telarius). Put plainly: Acaricidal effect on eggs of two-spotted red spiders, ovicidal rate, 500 ppm spray. The assay is classed as in vivo. The settings on record: eggs on green bean leaf disc; spray 3.5 ml; concentration 500 ppm; 8 days after treatment. The procedure:
Acaricidal Effect on Eggs of Two-Spotted Red Spiders (Tetranychus telarius) 5 female imagoes of two-spotted red spiders were released on a green been leaf disc (diameter: 3 cm). Then, the imagoes were left to lay eggs on the leaf disc for 20 hours and then removed therefrom. The present acaricide which had been prepared according to Preparation Example 1 was diluted with water to a predetermined concentration. 3.5 ml of the preparation thus obtained was sprayed with a rotary spraying column (Mizuho Rika) over the disc (concentration: 500 ppm, repetition: twice). 8 days after the treatment, the number of unhatched eggs was counted to determine the ovicidal rate (%).

Assay [2] deals with two-spotted red spiders (Tetranychus telarius). The experiment in a line: Acaricidal effect on two-spotted red spiders, imago-killing rate, 500 ppm leaf immersion. The assay is classed as in vivo. The settings on record: female imagoes on green bean leaf, leaf immersion about 5 seconds, concentration 500 ppm, fifth day after treatment, 25° C. How it is done:
Acaricidal Effect on Larvae of Two-Spotted Red Spiders (Tetranychus telarius): A stem of green bean seedling having only one primary left was placed in a test tube (capacity: 50 ml) containing water. 15 female imagoes of two-spotted red spiders were put on each leaf. One day after, the leaf having the two-spotted red spiders was immersed (about 5 seconds) in the present insecticide diluted with water, which had been prepared according to the Preparation Example, (concentration: 500 ppm, repetition: twice). They were kept in a constant-temperature room at 25° C. On the fifth day after the treatment, the female imagoes on the leaf of the green bean seedling were observed. The imago-killing rate (%) was determined on the basis of the results of the observation to obtain the results shown in Table 6.

As to `CO/C=C(/C(=O)OC)c1c(OCc2cnc(OC(C)C(F)(F)F)s2)c(C)nn1C` (racemic) [Table 2-19], the “Ovicidal rate (%)” value in assay [1] is 100%. Also, the “Acaricidal rate (%)” value in assay [2] is given as 100%.
Regarding `CO/C=C(/C(=O)OC)c1c(C#Cc2cc(C)cc(C)c2)c(C)nn1C` [Table 1-9], the “Ovicidal rate (%)” value in assay [1] turned out to be 80%. Also, the “Acaricidal rate (%)” value in assay [2] was determined as 96%.
In the case of `CO/C=C(/C(=O)OC)c1c(OCc2ccc(Oc3ccc(C(F)(F)F)cc3)cc2)c(C)nn1C` [Table 2-2], the “Ovicidal rate (%)” value in assay [1] was 100%. The “Acaricidal rate (%)” value in assay [2] came out at 100%.
For the molecule `CO/C=C(/C(=O)OC)c1c(OCc2cccc(Oc3cccc(C(F)(F)F)c3)c2)c(C)nn1C` [Table 2-6], in assay [1], the “Ovicidal rate (%)” value is 100%. For the same molecule, the “Acaricidal rate (%)” value in assay [2] is recorded as 100%.
Take `CO/C=C(/C(=O)OC)c1c(OCc2ccc(F)c(Oc3ccccc3)c2)c(C)nn1C` [Table 2-7]: in assay [1], the “Ovicidal rate (%)” value turned out to be 100%. The “Acaricidal rate (%)” value in assay [2] was 100%.
Take `CO/C=C(/C(=O)OC)c1c(OCc2cccc(Oc3ccc(Cl)cc3)c2)c(C)nn1C` [Table 2-9]: in assay [1], the “Ovicidal rate (%)” value is listed as 100%. In assay [2], the “Acaricidal rate (%)” value was 100%.
As to `CO/C=C(/C(=O)OC)c1c(OCc2ccc(Oc3ccc(Cl)c(Cl)c3)cc2)c(C)nn1C` [Table 2-10], in assay [1], the “Ovicidal rate (%)” value is recorded as 100%. Moreover, the “Acaricidal rate (%)” value in assay [2] came to 100%.
As to `CO/C=C(/C(=O)OC)c1c(OCc2cccc(Oc3ccc(C(F)(F)F)cc3Cl)c2)c(C)nn1C` [Table 2-11], the “Ovicidal rate (%)” value in assay [1] amounted to 100%. The “Acaricidal rate (%)” value in assay [2] is 100%.
Consider `CO/C=C(/C(=O)OC)c1c(OCc2cccc(Oc3ccc(C)cc3)c2)c(C)nn1C` [Table 2-12], for which the “Ovicidal rate (%)” value in assay [1] was 100%. Moreover, in assay [2], the “Acaricidal rate (%)” value worked out at 100%.
For `CO/C=C(/C(=O)OC)c1c(OCc2ccc(Oc3ncc(C(F)(F)F)cc3Cl)cc2)c(C)nn1C` [Table 2-13], the “Ovicidal rate (%)” value in assay [1] was determined as 100%. For the same molecule, in assay [2], the “Acaricidal rate (%)” value stood at 100%.
As to `CO/C=C(/C(=O)OC)c1c(OCc2sc(Oc3ccc(C(F)(F)F)cc3)nc2C)c(C)nn1C` [Table 2-14], the “Ovicidal rate (%)” value in assay [1] is reported as 100%. In addition, the “Acaricidal rate (%)” value in assay [2] is on record as 100%.
Turning to `CO/C=C(/C(=O)OC)c1c(OCc2cc(C(C)(C)C)ccc2C)c(C)nn1C` [Table 2-15], the “Ovicidal rate (%)” value in assay [1] came out at 100%. In addition, the “Acaricidal rate (%)” value in assay [2] is listed as 100%.
As to `CO/C=C(/C(=O)OC)c1c(OCc2ccc(Cl)c(Cl)c2)c(C)nn1C` [Table 2-16], the “Ovicidal rate (%)” value in assay [1] came out at 80%. In assay [2], the “Acaricidal rate (%)” value is 96%.
On the same counts, the results for `COC=C(C(=O)OC)c1c(OCc2ccc(Cl)cc2Cl)c(C)nn1C` [Table 2-18] are 100% and 100%.
As for `CO/C=C(/C(=O)OC)c1c(OCc2cccc(Oc3ccc(Cl)c(Cl)c3)c2)c(C)nn1C` [Table 2-20], the “Ovicidal rate (%)” value in assay [1] was 100%. For the same molecule, the “Acaricidal rate (%)” value in assay [2] came to 100%.
On to `CO/C=C(/C(=O)OC)c1c(OCc2cccc(Oc3ccc(F)cc3)c2)c(C)nn1C` [Table 2-21], for which the “Ovicidal rate (%)” value in assay [1] was determined as 100%. In assay [2], the “Acaricidal rate (%)” value was 100%.
As to `CO/C=C(/C(=O)OC)c1c(OCc2cc(Cl)ccc2Cl)c(C)nn1C` [Table 2-22], the “Ovicidal rate (%)” value in assay [1] was found to be 100%. Besides, the “Acaricidal rate (%)” value in assay [2] came to 100%.
As to `CO/C=C(/C(=O)OC)c1c(OCc2ccccc2C(F)(F)F)c(C)nn1C` [Table 2-23], the “Ovicidal rate (%)” value in assay [1] was found to be 100%. Moreover, in assay [2], the “Acaricidal rate (%)” value turned out to be 100%.
Consider `CO/C=C(/C(=O)OC)c1c(OCc2ccc(F)cc2C(F)(F)F)c(C)nn1C` [Table 2-24], for which the “Ovicidal rate (%)” value in assay [1] is 100%. Also, in assay [2], the “Acaricidal rate (%)” value worked out at 100%.
With `CO/C=C(/C(=O)OC)c1c(OCc2cc(C(F)(F)F)ccc2C(F)(F)F)c(C)nn1C` [Table 2-25], the “Ovicidal rate (%)” value in assay [1] was found to be 100%. The “Acaricidal rate (%)” value in assay [2] amounted to 100%.
On to `CO/C=C(/C(=O)OC)c1c(OCc2ccc(OC(F)(F)F)cc2)c(C(F)(F)F)nn1C` [Table 2-29], for which the “Ovicidal rate (%)” value in assay [1] worked out at 100%. In addition, in assay [2], the “Acaricidal rate (%)” value came to 100%.
